According to patent US20220064238A1, “Methods And Compositions For Modifying Transcription Factor Activity by Targeting The Human Mediator Complex Using Cell Penetrating Memetic Peptides And Methods of Treating Cancer Using The Same” (The Regents of the University of Colorado, a body corporate, priority 2020, published 2022):
Bridge positions count the residues as written; N and C are the ends. Square brackets hold non-standard residues; d marks the D form. Peptide text beside a SMILES is read from it. PEG6 = NCCOCCOCCOCCOCCOCCOCCC(=O)O; R8 = C=CCCCCCC[C@@](C)(N)C(=O)O; S5 = C=CCCC[C@](C)(N)C(=O)O

Assays:
HCT116 cells = assay: RNA-Seq in HCT116 cells, non-p53 genes / genome-wide transcription; format: cell-based, human; settings: DMSO control cells, no Nutlin
Source text: An expectation of our experimental strategy was that the bivalent peptide, which was designed based upon p53AD structure, would selectively block p53 function. […] RNA-Seq experiments in HCT116 cells represented a more rigorous test for selectivity. HCT116 cells express hundreds of sequence-specific, DNA-binding TFs, including high level expression of TFs that define the cell lineage. For HCT116 cells, these TFs include SREBF1, ELF3, JUNB, NR2F1, and MYC. To assess the general impact of the bivalent peptide on pol II transcription, we compared RNA-Seq data from DMSO control cells (i.e. no Nutlin treatment) in the presence/absence of bivalent peptide.
Electroporation of bivalent peptide into HCT116 cells (RNA-Seq experiment 1): Two 6-well plates (HCT116 cells) were grown to about 80% confluency. Cells were then trypsinized, washed with PBS, and resuspended in 150 μL Neon Buffer R. The cells were then split into two groups: No peptide and 10 μM peptide. The cells were then drawn into a 10 μL Neon pipet tip, electroporated and ejected into 2 mL of McCoy's 5A media without antibiotic. For each experiment, two cell electroporation aliquots were added to media containing either 0.1% DMSO (control) or 10 μM Nutlin-3a (in DMSO, to a final concentration of 0.1%). […]

[1] = system: pol II occupancy at the p21 locus; assay: ChIP of RNA polymerase II occupancy at CDKN1A (p21); format: cell-based; settings: 3 h post-Nutlin, Ser5-phosphorylated pol II ChIP
Source text: FIGS. 13A-B. Summary of ChIP experiments, showing that RNA polymerase II occupancy at the p53 target gene CDKN1A (p21) is reduced in cells treated with the bivalent peptide (peptide). A) Time course following Nutlin induction, to determine ideal time point to probe pol II occupancy at the p21 locus. […] However, pol II occupancy is reduced in cells treated with the bivalent peptide. […] Pol II phosphorylated at serine-5 of its C-terminal domain was used for ChIP analysis, because this is a proxy for initiating pol II at gene promoters (start sites). Data represent biological triplicates. Similar results were observed genome-wide, using ChIP-seq, although the timing of induction across p53 target genes will vary (data not shown).

## CC[C@H](C)[C@H](NC(=O)[C@H](CC(=O)O)NC(=O)[C@H](CC(=O)O)NC(=O)[C@@H]1CCCN1C(=O)[C@H](CO)NC(=O)[C@H](CC(C)C)NC(=O)CCOCCOCCOCCOCCOCCOCCNC(=O)[C@H](CCCNC(=N)N)NC(=O)[C@H](CCCNC(=N)N)NC(=O)[C@]1(C)CCCC=CCCCCCC[C@@](C)(NC(=O)[C@H](Cc2ccccc2)NC(=O)[C@H](CCCNC(=N)N)NC(=O)[C@H](CCC(=O)O)NC(=O)[C@H](CCC(N)=O)NC(=O)[C@H](CO)NC(=O)[C@H](CCCNC(=N)N)NC(C)=O)C(=O)N[C@@H](CC(=O)O)C(=O)N[C@@H](CC(C)C)C(=O)N[C@@H](Cc2c[nH]c3ccccc23)C(=O)N[C@@H](CCCCN)C(=O)N[C@@H](CCCNC(=N)N)C(=O)N[C@@H](CC(C)C)C(=O)N1)C(=O)N[C@@H](CCC(=O)O)C(=O)N[C@@H](CCC(N)=O)C(=O)N[C@@H](Cc1c[nH]c2ccccc12)C(=O)N[C@@H](Cc1ccccc1)C(=O)N[C@H](C(=O)N[C@@H](CCC(=O)O)C(=O)N[C@@H](CC(=O)O)C(N)=O)[C@@H](C)O [bivalent peptide] (Ac-RSQERF[R8]DLWKRL[S5]RR[PEG6]LSPDDIEQWFTED-NH2; staple 7-14; N-terminus assumed)
HCT116 cells
  effect on pol II transcription genome-wide: minor effect on pol II transcription
[1]
  pol II occupancy at the p21 locus in peptide-treated cells: reduced
